{
  "source": "patent EP2151441A1",
  "about": "“Beta-carbolin-derivates as substrates for an enzyme” (Julius-Maximilians-Universität Würzburg, priority 2008, dated 2010)",
  "key": {"CYP3A4 [1]": {"target": "T1, CYP3A4 (Homo sapiens, UniProt P08684)", "T1 sequence (P08684 whole entry)": "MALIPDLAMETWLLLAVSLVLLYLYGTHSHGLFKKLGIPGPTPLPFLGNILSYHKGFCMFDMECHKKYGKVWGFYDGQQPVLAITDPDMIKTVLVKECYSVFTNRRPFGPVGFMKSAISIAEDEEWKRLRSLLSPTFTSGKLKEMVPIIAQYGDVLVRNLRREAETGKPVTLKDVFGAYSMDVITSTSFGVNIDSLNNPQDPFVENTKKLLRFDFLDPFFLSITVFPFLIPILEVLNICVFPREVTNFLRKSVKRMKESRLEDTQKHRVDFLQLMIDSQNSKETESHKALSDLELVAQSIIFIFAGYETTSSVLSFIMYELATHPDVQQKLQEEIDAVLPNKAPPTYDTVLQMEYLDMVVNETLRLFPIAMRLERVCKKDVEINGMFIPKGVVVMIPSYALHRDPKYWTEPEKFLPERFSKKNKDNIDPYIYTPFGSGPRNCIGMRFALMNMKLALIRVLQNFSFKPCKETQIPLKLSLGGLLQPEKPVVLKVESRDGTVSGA", "conditions": "cited from earlier work; for Km: according to US 6,207,404 (BFC, BzRes) or Walsky and Obach 2004 (Midazolam)"}, "CYP1B1": {"target": "T2, CYP1B1 (Homo sapiens, UniProt Q16678)", "T2 construct": "purchased BD Biosciences (Supersomes)", "T2 sequence (Q16678 1-543)": "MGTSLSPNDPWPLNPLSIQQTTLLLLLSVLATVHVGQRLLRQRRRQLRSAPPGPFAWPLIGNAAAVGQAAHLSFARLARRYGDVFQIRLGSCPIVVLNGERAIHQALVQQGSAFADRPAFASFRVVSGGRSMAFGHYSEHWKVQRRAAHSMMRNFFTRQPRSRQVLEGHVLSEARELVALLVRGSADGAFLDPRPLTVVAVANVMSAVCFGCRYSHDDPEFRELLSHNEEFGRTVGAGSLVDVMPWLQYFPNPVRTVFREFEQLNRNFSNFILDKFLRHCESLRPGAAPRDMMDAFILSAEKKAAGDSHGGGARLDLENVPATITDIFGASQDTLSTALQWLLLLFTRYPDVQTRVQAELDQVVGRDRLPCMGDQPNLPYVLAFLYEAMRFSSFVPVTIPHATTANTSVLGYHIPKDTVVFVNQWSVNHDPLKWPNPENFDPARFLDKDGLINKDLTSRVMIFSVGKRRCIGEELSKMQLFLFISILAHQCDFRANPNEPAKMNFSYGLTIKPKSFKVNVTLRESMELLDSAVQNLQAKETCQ", "assay": "Catalytic activity of other CYP enzymes for the reaction of substance 1a", "format": "biochemical", "conditions": "2 µM substance 1a, 15 pmol/ml CYP enzyme, Fig. 2", "protocol": "(§1) For the determination of the catalytic activity of other CYP-enzymes with respect to the reaction of substance 1a 2 µM of substance 1a were contacted with 15 pmol/ml CYP enzyme (Supersomes®, BD Biosciences) and 2 mM NADPH in 100 mM potassium phosphate puffer (pH 7.4; 3 mM MgCl2) with the exception of CYP3A4 that was used at a concentration of 5 pmol/ml."}, "CYP2D6": {"target": "T3, CYP2D6 (Homo sapiens, UniProt P10635)", "T3 construct": "purchased BD Biosciences (Supersomes)", "T3 sequence (P10635 whole entry)": "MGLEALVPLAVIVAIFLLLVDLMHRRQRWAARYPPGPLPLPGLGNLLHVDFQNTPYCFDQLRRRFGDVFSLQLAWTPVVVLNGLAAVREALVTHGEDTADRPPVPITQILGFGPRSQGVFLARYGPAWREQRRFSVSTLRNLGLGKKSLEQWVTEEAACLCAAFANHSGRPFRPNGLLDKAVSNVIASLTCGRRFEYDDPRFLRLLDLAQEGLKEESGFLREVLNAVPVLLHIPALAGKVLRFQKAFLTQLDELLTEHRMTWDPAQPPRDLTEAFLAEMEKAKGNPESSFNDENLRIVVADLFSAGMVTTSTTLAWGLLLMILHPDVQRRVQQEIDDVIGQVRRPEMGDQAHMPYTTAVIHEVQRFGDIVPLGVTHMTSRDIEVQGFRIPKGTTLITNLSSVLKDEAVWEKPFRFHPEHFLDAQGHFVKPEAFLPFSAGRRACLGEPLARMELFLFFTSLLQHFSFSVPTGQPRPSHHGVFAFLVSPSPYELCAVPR", "assay": "Catalytic activity of other CYP enzymes for the reaction of substance 1a", "format": "biochemical", "conditions": "2 µM substance 1a, 15 pmol/ml CYP enzyme, Fig. 2", "protocol": "as §1"}, "CYP3A4 [2]": {"target": "T1, CYP3A4", "assay": "Determination of Km and Vmax of the CYP3A4-catalyzed O-dealkylation reaction (LC-MS quantification of reaction product 1b)", "format": "biochemical", "design": "purchased BD Biosciences (Supersomes)", "conditions": "Vmax comparison with BFC", "protocol": "The Michaelis-Menten constant (Km) and the maximal reaction velocity (Vmax) are important parameters for inhibition assays. To determine the inhibitory activity of test compounds the substrate concentration in the assay should be about the Km value. […] After incubation for 20 minutes at 37°C the reaction product 1b was quantified using mass spectrometry after liquid chromatography. […] For the calculation of Km and Vmax the Sigma Plot 10.0 software with enzyme kinetic module (SPSS, Inc., Chicago, IL, USA) was used."}, "recombinant human CPY3A4": {"target": "T4, recombinant human CPY3A4 (Homo sapiens, UniProt P08684)", "T4 construct": "purchased BD Biosciences (Supersomes)", "T4 sequence (P08684 whole entry)": "as the sequence (P08684 whole entry) above", "assay": "Catalytic activity of CYP3A4 for the reaction with substance 1a", "format": "biochemical", "protocol": "After incubation for 20 minutes at 37°C the metabolite 1b was quantified using liquid chromatography followed by mass spectrometry. For this reaction 4.5 pmol/min/pmol CYP3A4 could be determined as activity of the enzyme. According to US 6,207,404 the activity of CYP3A4 for the reaction of BFC at a concentration of 50 µM is about 1.5 pmol/min/pmol CYP3A4. […] For the determination of the catalytic activity of other CYP-enzymes with respect to the reaction of substance 1a 2 µM of substance 1a were contacted with 15 pmol/ml CYP enzyme (Supersomes®, BD Biosciences) and 2 mM NADPH in 100 mM potassium phosphate puffer (pH 7.4; 3 mM MgCl2) with the exception of CYP3A4 that was used at a concentration of 5 pmol/ml."}, "[3]": {"conditions": "according to US 6,207,404 (BzRes) or Walsky and Obach 2004 (Midazolam)"}},
  "note": "Like-named read-outs stand apart in the source and are kept apart here.",
  "data": [
    {"compound": "O=c1ccc2nc3ccc(OCc4ccccc4)cc3oc-2c1", "note": "[BzRes, benzyloxyresorufin]", "values": [
      {"measurement": "Km", "setting": "CYP3A4 [1]", "value": 38, "unit": "µM"},
      {"measurement": "Vmax", "setting": "CYP3A4 [1]; [3]", "value": 0.3, "unit": "pmol/min/pmol CYP3A4"}
    ]},
    {"compound": "Cc1ncc2n1-c1ccc(Cl)cc1C(c1ccccc1F)=NC2", "note": "[Midazolam]", "values": [
      {"measurement": "Km", "setting": "CYP3A4 [1]", "value": 0.6, "unit": "µM"},
      {"measurement": "Vmax", "setting": "CYP3A4 [1]; [3]", "value": 16.3, "unit": "pmol/min/pmol CYP3A4"}
    ]},
    {"compound": "O=c1cc(C(F)(F)F)c2ccc(OCc3ccccc3)cc2o1", "note": "[BFC, 7-benzyloxy-4-trifluoromethylcumarin]", "values": [
      {"measurement": "activity of CYP3A4 for the reaction of BFC", "setting": "CYP3A4 [1]; BFC at a concentration of 50 µM, according to US 6,207,404", "value": "about 1.5 pmol/min/pmol CYP3A4"},
      {"measurement": "Km", "setting": "CYP3A4 [1]", "value": "> 200", "unit": "µM"},
      {"measurement": "Vmax", "setting": "CYP3A4 [1]; at 40 µM BFC, according to US 6,207,404", "value": "1.5 (at 40 µM BFC) pmol/min/pmol CYP3A4"}
    ]},
    {"compound": "Cc1c2[nH]c3cc(OCc4ccccc4)ccc3c2cc[n+]1Cc1ccccc1.O=C([O-])C(F)(F)F", "note": "[Substance 1a, 2-benzyl-7-benzyloxy-1-methyl-9H-pyrido[3,4-b]indol-2-ium trifluoroacetate salt]", "values": [
      {"measurement": "reaction of substrate 1a to reaction product 1b catalyzed by enzyme", "setting": "CYP1B1", "value": "could be catalyzed"},
      {"measurement": "reaction of substrate 1a to reaction product 1b catalyzed by enzyme", "setting": "CYP2D6", "value": "could be catalyzed"},
      {"measurement": "reaction velocity relative to BFC", "setting": "CYP3A4 [2]", "value": "about 5 fold"},
      {"measurement": "activity of the enzyme relative to the reaction of BFC", "setting": "recombinant human CPY3A4; 2 µM 1a versus 50 µM BFC", "value": 3, "unit": "fold"},
      {"measurement": "activity of the enzyme", "setting": "recombinant human CPY3A4; 2 µM substance 1a, 5 pmol/ml CYP3A4, 2 mM NADPH, 20 minutes at 37°C", "value": 4.5, "unit": "pmol/min/pmol CYP3A4"},
      {"measurement": "reaction of substrate 1a to reaction product 1b catalyzed by enzyme", "setting": "recombinant human CPY3A4; 2 µM substance 1a, CYP3A4 at 5 pmol/ml, Fig. 2", "value": "could be catalyzed"}
    ]}
  ]
}
